# Laboratory results as given in patent publication US12239650B2, “Compounds for treating and preventing net associated complications” (The Australian National University, priority 2019, dated 2025).
# Assays:
# histones [1] = test: Lipid bilayer assay (artificial lipid bilayers exposed to histones); conditions: for Average bilayer lifetime: histones alone 5.7±1.2, control 46±4; for Incidence of rapid bilayer rupture: within 0.3-0.5 min of histone addition, histones alone 28%
# Experimental: Lipid bilayer assays. Artificial lipid bilayers, prepared as previously described (Rebbeck, R. T. et al. The beta(1a) subunit of the skeletal DHPR binds to skeletal RyR1 and activates the channel via its 35-residue C-terminal tail. Biophys J 100, 922-930 (2011).), separated symmetrical 150 mM or 250 mM KCl (pH ˜5.5) solutions. Histones (1 μM, 15.2 μg ml^−1) were added to bilayers alone or after 0.5-3 h incubation with 10 μM CBS (3.5 μg ml^−1) or 10 μM MTS (5.1 μg ml^−1) at ˜20° C. Current was recorded continuously after histone addition until the bilayers broke or the experiment was terminated.
# histones [2] = test: Murine histone-induced deep vein thrombosis (DVT) model; assay type: in vivo; conditions: mice, histones 10 mg kg^−1 i.v., compound 50 mg kg^−1 i.v., 48 h, FIG. 6c
# Experimental: Murine deep vein thrombosis (DVT) model. The procedure used is largely as previously described (Brill, A. et al. Neutrophil extracellular traps promote deep vein thrombosis in mice. J Thromb Haemost 10, 136-144 (2012)). […] The peritoneum and skin were closed following which all mice received an i.v. injection of histones via the tail vein (10 mg kg^−1) or an equivalent volume of saline followed 5 min later by an i.v. injection of test compounds (50 mg kg^−1) or saline. Mice were monitored for 48 h after which they were re-anesthetized, re-opened and any thrombi that had developed distal to the IVC stenosis were removed for analysis. Sham operated control animals received laparotomy and 90% ligation of the IVC, however the ligation was removed immediately after occlusion of the IVC.
# [3] = Rat cardiac ischemia reperfusion injury model; assay type: in vivo; conditions: rats, 30 mg kg^−1 into left ventricle 5 min prior to reperfusion, FIG. 7c
# Description: Rat cardiac ischemia reperfusion injury model. The method used is based on a combination of previously published procedures (Takada, Y., Hashimoto, M., Kasahara, J., Aihara, K. & Fukunaga, K. Cytoprotective effect of sodium orthovanadate on ischemia/reperfusion-induced injury in the rat heart involves Akt activation and inhibition of fodrin breakdown and apoptosis. J Pharmacol Exp Ther 311, 1249-1255 (2004); and Hale, S. L., Dae, M. W. & Kloner, R. A. Hypothermia during reperfusion limits ‘no-reflow’ injury in a rabbit model of acute myocardial infarction. Cardiovasc Res 59, 715-722 (2003)). Male Wistar rats were anaesthetized with isofluorane, intubated via tracheostomy and ventilated with a tidal volume of 1 ml 150 g^−1 and a respiratory rate of 65 breaths min^−1. Supplemental oxygen was delivered at a FiO2 of ˜30%. […]
# At the conclusion of reperfusion (30 min), Thioflavin S (1 ml 200 g^−1 of body weight) was slowly injected into the lumen of the left ventricle, to define the territory of microvascular obstruction (MVO) within the ischemic zone (IZ). The IZ territory was determined by the re-occlusion of the atraumatic snare and infusion of blue microspheres into the left ventricle (Unisperse Blue, BASF), distributed within solutions via ultrasonication using a CD-6800 (Unisonics) sonicator. […] Planimetry (Image J, Freeware) was used to quantify the areas of the IZ, MVO and necrosis.
# histones [4] = test: In-vivo histone toxicity assay; conditions: mice; for Relative potency in protecting from histone-induced tissue pathologies / Protection from histone-induced liver damage, generalised tissue injury and kidney failure (circulating ALT, LDH, creatinine): FIG. 6a; for Protection from histone-induced liver damage, generalised tissue injury and kidney failure (circulating ALT, LDH, creatinine): compound i.p. 10 min prior to i.v. histones 50 mg kg^−1, blood 4 h post-histones, concentration-dependent
# Experimental: In-vivo histone toxicity assays. BALB/c female mice (5-6 weeks of age), that are more prone to histone-induced anemia and easier to inject i.v. at this young age than C57BL/6 mice, were injected i.p. with test compounds at concentrations indicated 10 min prior to i.v. injection of histones (50 mg kg^−1) in phosphate buffered saline. Retro-orbital bleeds were performed with glass Pasteur pipettes 10 min after histone injection and collected blood added to acid citrate dextrose (ACD), the 10 min blood sample being subjected to hematologic analyses for platelet and erythrocyte content using an ADVIA 2120i Hematology Analyzer. Spleens were also harvested at 10 min post-histone injection and splenic hemoglobin content quantified using a hemoglobin assay kit (Sigma-Aldrich). In the case of 4 h blood samples, male C57/BL/6 mice (6-8 weeks of age) were injected with test compounds and histones as above and plasma isolated and stored frozen for subsequent biochemical testing, with markers for liver (alanine aminotransferase, ALT), kidney (creatinine, Crea) and general tissue (lactate dehydrogenase, LDH) damage being determined by the Department of Pathology, The Canberra Hospital.
# [5] = system: histone-induced Ca2+ flux by HMEC-1; test: Calcium flux in endothelial cells (Indo-1 flow cytometry); assay type: cell-based, human; conditions: compounds 100 μg ml^−1, histones 100 μg ml^−1, FIG. 5c
# Experimental: Calcium flux studies in endothelial cells. HMEC-1 (2×10^7 ml^−1) in RPMI-1640 medium were incubated with Indo-1 AM (5 μM) (ThermoFisher) (Tellam, R. L. & Parish, C. R. The effect of sulfated polysaccharides on the free intracellular calcium ion concentration of lymphocytes. Biochim Biophys Acta 930, 55-64 (1987); and Weston, S. A., Tellam, R. L. & Parish, C. R. Dextran sulfate induces changes in the free intracellular calcium ion concentration of a subpopulation of immature thymocytes. Immunol Cell Biol 69, 369-376 (1991)) at 37° C. for 60 min. After 3 washes with RPMI-1640 medium supplemented with 5% FCS the cells were resuspended at 4×10^6 ml^−1 in ice-chilled HEPES-buffered saline (NaCl 8 g l^−1, KCl 0.4 g l^−1, CaCl2 0.2 g l^−1, MgCl2·6H2O 0.2 g l^−1, D-glucose 1.8 g l^−1, pH 7.4) supplemented with 10 mM HEPES. […] Intracellular Ca^2+ flux was monitored using flow cytometry. […] After the exclusion of cellular debris and clumped cells (on the basis of FSC/SSC light scattering) the basal Ca^2+ level was monitored for 2 min before histone addition in the presence/absence of novel compounds. Ca^2+ levels were measured at 1, 3 and 9 min post-histone addition with a constant flow rate (˜300 events/sec). Ca^2+ flux was determined as an increase in the ratio of geometric mean fluorescence intensity (GMFI) of Ca^2+-bound over Ca^2+-unbound Indo-1.
# [6] = histones 1 μM with 10 μM compound
Compound,Average bilayer lifetime (histones [1]; [6]),Incidence of rapid bilayer rupture (histones [1]),Inhibition of histone-mediated DVT (histones [2]),Reduction of area of microvascular obstruction and myocardial necrosis in the ischemic zone [3],Relative potency in protecting from histone-induced tissue pathologies (histones [4]),"Protection from histone-induced liver damage, generalised tissue injury and kidney failure (circulating ALT, LDH, creatinine) (histones [4])",Effect on histone-induced Ca2+ response [5],Bilayer lifetime compared with control lifetimes (histones [1]; [6]),"Histone-induced thrombocytopenia and anaemia (histones [4]; 100 mg kg^−1 i.p., 10 min post-histones, FIG. 6b)"
"O=S(=O)(O)OC[C@H]1O[C@@H](O[C@H]2[C@H](OS(=O)(=O)O)[C@@H](OS(=O)(=O)O)C(OS(=O)(=O)O)O[C@@H]2COS(=O)(=O)O)[C@H](OS(=O)(=O)O)[C@@H](OS(=O)(=O)O)[C@@H]1OS(=O)(=O)O (stereo partly shown) [CBS, cellobiose per-O-sulfate]",18 ± 4 min,5.8%,almost totally inhibited,50%,equally active,protected,substantially inhibited,–,–
"O=S(=O)(O)OC[C@H]1O[C@H](O[C@H]2[C@H](OS(=O)(=O)O)[C@@H](OS(=O)(=O)O)C(OS(=O)(=O)O)O[C@@H]2COS(=O)(=O)O)[C@H](OS(=O)(=O)O)[C@@H](OS(=O)(=O)O)[C@@H]1O[C@H]1O[C@H](COS(=O)(=O)O)[C@@H](OS(=O)(=O)O)[C@H](OS(=O)(=O)O)[C@H]1OS(=O)(=O)O (stereo partly shown) [MTS, maltotriose per-O-sulfate]",36 ± 5 min,2.5%,almost totally inhibited,totally ineffectual,most potent,protected,totally ablated,not significantly different from the control lifetimes,prevented
